Measured values taken from publication PMC12298629, “New Derivatives of Caracasine Acid with Anti-Leukemic Activity and Limited Effectiveness in Spheroid Cultures” (Pharmaceuticals, 2025).

Legend:
[1] = test system: different cell lines (CCRF-CEM, K562, Raji, Ramos, HCT116, HCT116 p53KO, A549, U2OS); experiment: Peroxide formation assessment using DCFDA; assay type: cell-based, human; details: compounds at 5-fold the IC50; percentage increase versus negative control
Procedure: The assessment of peroxides was performed as described by Figuero et al. with some modifications. Briefly, the different cell lines, at 10,000 cells per well, were incubated in a sterile 96-well glass-bottom plate from Celvis (München, Germany), which features a black polystyrene frame with high-quality #1.5 glass, suitable for fluorescent assessment. After one hour of incubation in the incubator at 37 °C, 5% CO2, 50 µL of 20 µM 2′,7′-dichlorofluorescein diacetate (DCFDA), Thermo Fisher, was added. The cells were incubated for an additional 30 min to allow for the internalization of the fluorophore. Then, 50 µL of the compounds diluted in media at a concentration 5-fold the IC50 calculated in cytotoxic studies, were added to each well, and the plates were read on an Enspire (PerkinElmer). Fluorescence was measured using the following parameters: excitation at 495 nm and emission at 530 nm. The temperature was maintained at 37 °C, and the readings were taken in bottom mode with three readings per well. Wells containing only RPMI, with 10% FCS, were included as background negative controls. Each experiment was repeated three times on separate occasions (n = 3). Cisplatin was used as a positive control, and the values were calculated based on cells without stimuli (negative control for each cell line). Hydrogen peroxide was used as a possible early marker for apoptosis as described by Miyazato et al..

[2] = test system: RAJI; experiment: Cytotoxic MTS assay, Raji; assay type: cell-based; details: Raji, human leukemia cell line, 72 h, median of five assays
Excerpt: (§1) The cancer cell lines used in the cytotoxic assays were acquired from the American Tissue Culture Collection (ATCC) (Manassas, VA, USA) and maintained as described previously. The MRC-5 and BJ human fibroblasts were used as non-tumoral control cells. The (MRC-5 LD and BJ LD) are also human fibroblast cell lines resistant to doxorubicin. […] The Raji and Ramos cell lines correspond to B-cell leukemia. Other cells, such as U2OS, represent a child osteosarcoma, while HCT116 is a colorectal tumor cell line. (HCT116p53^−/−, Horizon Discovery Ltd., Cambridge, UK) is a similar cell line with its p53 gene knocked down, serving as a model of human cancer frequently associated with a poor prognosis. The cells were maintained in Nunc/corning 80 cm^2 plastic tissue culture flasks and cultured in a cell culture medium according to ATCC or Horizon recommendations (McCoy, DMEM/RPMI 1640 with 5 g/L glucose, 2 mM glutamine, 100 U/mL penicillin, […] streptomycin, 10% fetal calf serum, and NaHCO3). The compounds were freshly dissolved in DMSO. The final concentration of DMSO was 0.01% in the cell culture.
(§2) The in vitro cytotoxicity of compounds (1–7) was assessed using the standard 3-(4,5-dimethyl-thiazol-2yl)-5-(3-carboxymethoxyphenyl)-2-(sulfophenyl)-2H-tetrazolium (MTS). The assay was performed at the Institute of Molecular and Translational Medicine using a robotic platform (High-ResBiosolutions, Beverly, MA, USA). Cell suspensions were prepared and diluted according to the specific cell type and the expected target cell density (25,000–35,000 cells/mL, based on cell growth characteristics). An automatic pipettor (30 μL) was used to add cells into 384-well microtiter plates. All tested compounds were dissolved in 100% DMSO, and four-fold dilutions of the intended test concentrations were added in 0.15 μL aliquots at time zero to the microtiter plate wells by the echo acoustic non-contact liquid handler Echo550 (Labcyte, San Jose, CA, USA). The assays were accomplished in technical duplicates and at least three biological replicates. The cells were incubated with the tested compound for 72 h at 37 °C in a 5% CO2 atmosphere with 100% humidity. At the end of the incubation period, cells were assayed using the MTS test. Aliquots (5 μL) of the MTS stock solution were pipetted into each well and incubated for 1–4 h. After this incubation period, the optical density (OD) was measured at 490 nm using an Envision reader (PerkinElmer, Waltham, MA, USA). Tumor cell survival (TCS) was calculated using the following equation: TCS = (OD drug-exposed well/mean OD control wells) × 100%. The IC50 value, representing the concentration of the compound lethal to 50% of the tumor cells, was calculated from the corresponding dose-response curves using Dotmatics software (Updated version 2022, London, UK). After three days of incubation on the cancer cell lines and normal fibroblasts, the […] (IC50) were obtained. Five assays were performed for each cell line. The standard error of the assays was lower than 10%, as assessed by the triplicate assays.

[3] = test system: CCRF-CEM; experiment: Cytotoxic MTS assay, CCRF-CEM; assay type: cell-based; details: CCRF-CEM, human leukemia cell line, 72 h, median of five assays
Excerpt: as §1, §2

[4] = test system: caspase 9; experiment: Caspase 9 activity in lysed HCT116 cells from 2D and spheroids; assay type: cell-based, human; details: 12 h; for Caspase 9 activity, 2D culture: HCT116 parental, 25 µM; for Caspase 9 activity, spheroid culture: HCT116 parental spheroids, 25 µM (cisplatin 15 μM)
Procedure: The assay was designed to evaluate the impact of various compounds on caspase activity using a standardized quantity of cell protein lysates after 12 h of incubation. The parental line HCT116 served as the basis for these experiments. Three distinct caspases were examined employing the fluorescence assay kits from Calbiochem (San Diego, CA, USA), specifically a fluorometric caspase-8 assay kit and a fluorimetric caspase-3 assay kit. Additionally, the fluorometric kit from Abcam was utilized to assess caspase-9 activity. Due to the variations in protocols for each caspase, separate plates were prepared for each assay, encompassing both two-dimensional (2D) cell cultures and spheroids. The compound concentrations were established at 25 µM, and assays were conducted in quintuplicate following a 12-h incubation period. The cells were harvested from the plates using the standard trypsin-EDTA solution (Merck Sigma Aldrich, Saint Louis, MO, USA), washed, and counted before lysis, as described in each kit. Cell processing adhered to the guidelines provided by the respective companies, and protein concentration was calculated and standardized using the standard BCA assay. Fluorescent readings were captured using the Enspire apparatus (Perkin-Elmer, MA, USA). Positive controls utilized included staurosporine at a concentration of 5 μM and cisplatin at 15 μM. The kits provided their own standards; however, to normalize all the readings between cultures, types, and treatments, the results were expressed as a percentage relative to the positive control, staurosporine, in 2D culture. […] A total of three separate assays were conducted for each caspase.

With `C=C(C)C1CCC23CC(CCC2C1(C)CCC(=O)OC(C)=O)C(C)C3=O` (single isomer, unassigned; ent-3) [Compound 6, Ent-3,4-Seco-15-Oxo-Kaur-4(19)-en-Acetic Anhydride] the “Peroxide formation (DCFDA)” value [1] was “did not induce peroxide formation”, the IC50 [2] was > 50 µM and the IC50 [3] was > 50 µM. The “Caspase 9 activity, 2D culture” value [4] was “did not induce caspase activity”.

`C=C(C)C1CCC23CC(CCC2C1(C)CCC(=O)O)C(C)C3=O` (single isomer, unassigned; ent-3) [Compound 5, Ent-3,4-Seco-15-Oxo-Kaur-4(19)-en-3-Oic Acid] was tested, and the “Peroxide formation (DCFDA)” value [1] was “did not induce peroxide formation”, the IC50 [2] was > 50 µM and the IC50 [3] was > 50 µM. For the same molecule, the “Caspase 9 activity, 2D culture” value [4] was “did not induce caspase activity”.

In the case of `C=C1C(=O)C23CCC(C(=C)C)C(C)(CCC(=O)OC(C)=O)C2CCC1C3` (stereo not shown) [Compound 7, Caracasine-Acetic Anhydride], the “Peroxide formation (DCFDA)” value [1] is reported as “most active”, the IC50 [2] is reported as 2.21 µM and the IC50 [3] is reported as 0.45 µM. For the same molecule, the “Caspase 9 activity, spheroid culture” value [4] was “absence of caspase activity”.

For `C=C1C(=O)C23CCC(C(=C)C)C(C)(CCC(=O)OC)C2CCC1C3` (stereo not shown) [Compound 2, Caracasine], the “Peroxide formation (DCFDA)” value [1] was “least active”, the IC50 [2] was 1.45 µM and the IC50 [3] was 0.86 µM. The “Caspase 9 activity, spheroid culture” value [4] was “absence of caspase activity”.
